Test results as given in patent publication US20100160431A1, “Methods and Compositions for the Treatment of Viral Infections” (priority 2006, published 2010).

Experiments:
[1] = Release profile of amantadine and oseltamivir combination (USP II Paddle system, water); type: physicochemical
From the text: The cumulative fraction is the amount of drug substance released from the formulation matrix to the serum or gut environment (e.g., U.S. Pat. No. 4,839,177) or as measured with a USP II Paddle system using water as the dissolution medium.

[2] = in vivo; cited from earlier work
[3] = Time to steady state concentration with extended release amantadine or rimantadine; details: patient with influenza A; 100 mg or more once daily; formulated as in Example 5
[4] = cited from earlier work; for Human PK T½ / Tmax: humans

NC12CC3CC(CC(C3)C1)C2 [Amantadine, amantadine]
cum. fraction ([1]; Time 1): 0.2
cum. fraction ([1]; Time 2): 0.3
cum. fraction ([1]; Time 4): 0.4
cum. fraction ([1]; Time 8): 0.5
cum. fraction ([1]; Time 12): 0.6
cum. fraction ([1]; Time 16): 0.7
cum. fraction ([1]; Time 20): 0.8
cum. fraction ([1]; Time 24): 0.9

CC(N)C12CC3CC(CC(C3)C1)C2 (centres unmarked) [Rimantadine, rimantadine]
Dose Dependent Toxicity [2]: Insomnia
time to therapeutically effective steady state serum concentration [3]: three

CCOC(=O)C1=C[C@@H](OC(CC)CC)[C@H](NC(C)=O)[C@@H](N)C1 [oseltamivir/TAMIFLU ®, oseltamivir]
cum. fraction ([1]; Time 1): 0.1
cum. fraction ([1]; Time 2): 0.15
cum. fraction ([1]; Time 4): 0.2
cum. fraction ([1]; Time 8): 0.35
cum. fraction ([1]; Time 12): 0.5
cum. fraction ([1]; Time 16): 0.65
cum. fraction ([1]; Time 20): 0.8
cum. fraction ([1]; Time 24): 1
T½ ([4]; head of Table 4): T½ = 3 hrs
Human PK T½ [4]: 3 h
Tmax [4]: 3 to 4 h

CC(=O)N[C@H]1[C@H]([C@H](O)[C@H](O)CO)OC(C(=O)O)=C[C@@H]1NC(=N)N [zanamivir/RELENZA ®, zanamivir]
Human PK T½ [4]: 2.5 to 5.1 h
Tmax [4]: 1 to 2 h
